The results in this text go back to patent publication US12528857B2, “Nutritionally-optimized collagen peptide” (Gelita AG, priority 2019, dated 2026).

For experiment [1], the system named is human dermal fibroblasts. The experiment is described as follows: Proteoglycan assay (Blyscan glycosaminoglycan assay): proteoglycan synthesis by dermal fibroblasts. The following applies: 0.5 mg/ml collagen peptide, stimulation for two weeks, photometric at 656 nm, FIG. 1B. The format is cell-based. As for the experimental part:
(§1) The human cells used were obtained from tebu-bio GmbH, Offenbach, Germany. The chondrocytes (Cat. No. 402-05a) or dermal fibroblasts (Cat. No. 106-05a) were first sown in 12-well culture plates and cultured at 37° C., 5% CO2 in Ham's F12 medium, to which 10% fetal calf serum, 20 U/ml penicillin-streptomycin and 50 μg/ml ascorbic acid were added. On every other day, the culture medium was replaced by new culture medium until the cells had reached 80% confluence. To investigate the influence of the collagen peptides according to the invention of SEQ ID NO: 7, 8, 9 and 10 on the biosynthesis of matrix proteins, the cell culture medium was then replaced by a special stimulation medium to which 0.5 mg/ml of the specific collagen peptides according to the invention were added.
The Blyscan glycosaminoglycan assay (Article No. 054B3000, 2019, tebu-bio, Offenbach, Germany, or Biocolor Ltd., UK) was used to determine proteoglycans. The biosynthesis of proteoglycans was determined after stimulating dermal fibroblasts for two weeks. According to the manufacturer's instructions, after discarding the culture medium, the cell layers were covered with 1 ml of papain extraction solution and incubated for three hours at 65° C. with vigorous shaking. The cell suspensions were then centrifuged (10,000 g, 10 min) and the supernatants were collected. After adding 1 ml of Blyscan dye solution and shaking (30 min), the supernatants were centrifuged again (12,000 rpm, 10 min) and then discarded. The isolated proteoglycan pellets were resuspended in 500 μl of dissociation solution. A photometric determination of the synthesized proteoglycan in 200 μl sample solution was carried out at a wavelength of 656 nm in comparison to untreated control experiments.

Experiment [2] deals with human dermal fibroblasts. The experiment is described as follows: Collagen assay (Sircol): collagen synthesis by dermal fibroblasts. To be noted: 0.5 mg/ml collagen peptide, stimulation for three weeks, photometric at 492 nm, FIG. 1A. The format is cell-based. The method, then:
as §1
To investigate the collagen metabolism, the amount of newly synthesized collagen was determined after stimulating the cells with 0.5 mg/ml BCP for three weeks. The synthesized collagen was isolated using the Sircol assay (Article No. 054S5000, 2019, tebu-bio, Offenbach, Germany, or Biocolor Ltd., UK) according to the manufacturer's instructions. In brief, the culture medium was initially discarded and the adherent cell layers were digested with 0.1 mg pepsin solution in 0.5 M acetic acid at 4° C. overnight. The cell suspensions were neutralized by adding 100 μl of an acid-neutralizing reagent. The synthesized collagen was then separated off by adding 200 μl of an isolation and concentration solution with vigorous shaking at 4° C. overnight. After centrifugation (12,000 rpm, 10 min) and discarding the supernatant, the isolated collagen was resuspended in 1 ml of Sircol dye solution. After 30 minutes of shaking and another centrifugation, the collagen pellet was covered with 750 μl of cold acidic solid washing reagent. After another centrifugation, the supernatant was again discarded and the enriched collagen was taken up in 250 μl of alkaline solution. In each case 200 μl of the sample solutions were used for photometric quantification of the synthesized collagen. The absorbance was measured at a wavelength of 492 nm. The amount of collagen synthesized in each case was determined on the basis of standardized collagen solutions.

Where no end group is shown, it is not given here. [ ]: non-standard residue; d: D form. Hyp = O=C(O)[C@@H]1C[C@@H](O)CN1

For the substance “GL[P]GKMGVFGLTGPIGP[P]GPWGV[P]GHKGYLGPT (GL[Hyp]GKMGVFGLTGPIGP[Hyp]GPWGV[Hyp]GHKGYLGPT) [SEQ ID NO: 7]”, the “increase of synthesis of proteoglycans by dermal fibroblasts in comparison to untreated controls” value (from here on “increase of synthesis of proteoglycans”) in experiment [1] came out at 26%. In addition, in experiment [2], the “increased collagen synthesis by dermal fibroblasts compared to untreated controls” value (“increased collagen synthesis” below) worked out at 27%.
Take “GL[P]GKYGVHGLTGPLGP[P]GPMGI[P]GWKGFVGPT (GL[Hyp]GKYGVHGLTGPLGP[Hyp]GPMGI[Hyp]GWKGFVGPT) [SEQ ID NO: 8]”: the “increase of synthesis of proteoglycans” value in experiment [1] amounted to 22%. Besides, the “increased collagen synthesis” value in experiment [2] is listed as 22%.
Consider “GP[P]GPLGMKGL[P]GVWGPFGL[P]GTPGPHGITGYKGV [SEQ ID NO: 9]”, for which the “increase of synthesis of proteoglycans” value in experiment [1] turned out to be 21%. For the same substance, in experiment [2], the “increased collagen synthesis” value was 21%.
For the substance “GP[P]GPVGTKGL[P]GFYGPLGI[P]GHPGPWGMLGTKGV [SEQ ID NO: 10]”, the “increase of synthesis of proteoglycans” value in experiment [1] is on record as 22%. In addition, the “increased collagen synthesis” value in experiment [2] turned out to be 21%.
